Reference: patent US12185720B2, “Chitooligosaccharides and methods for use in enhancing plant growth” (NOVOZYMES BIOAG A/S, priority 2011, dated 2025)
“Also recorded” adds a separate entry of the source.

Legend:
Cotton plants [1] = assay: Cotton foliar experiment (greenhouse); assay type: in vivo; settings: sprayed at V4 stage with 10^−8 M; grown up to 4 weeks; FIG. 9
Description: Cotton seeds were planted and grown to V4 stage (4 leaved stages) and then were sprayed with 10^−8 M of the LCO illustrated in FIG. 2b (also referred to in the examples as the “Pea LCO”) and the pea CO and then left to grow up to 4 weeks with occasional watering with Hoagland solution. Control plants were sprayed with water.

[2] = system: Hybrid corn seeds (92L90); assay: Corn seed treatment (greenhouse, two trials); assay type: in vivo; settings: 3 fl oz/100 lbs of seed; for dry weight increase over LCO: 10^-8 M
Experimental: Two seed treatment experiments using only Pea LCO, Pea CO and the CO mixtures obtained from chitosan by enzymatic process (structurally distinct from the Pea CO, and also referred to in the examples as the “China CO”) were performed in greenhouse. Hybrid corn seeds (92L90, Peterson Farm, USA) were treated with treatment solution (10^-8 M) at the rate of 3 fl oz/100 lbs of seed. Seeds were planted in plastic pots containing 1:1 Sand:Perlite mixture. Seeds were allowed to grow for about 3-4 weeks and then they were harvested and their dry weight measured.

[3] = system: Siratro (Macroptelium atropurpureum) root segments; assay: Root hair deformation bioassay, Siratro; settings: 4 hours in the dark, FIG. 14
Experimental: (§1) Siratro (Macroptelium atropurpureum) seeds were germinated on moist filter paper in petriplates. When seedlings roots are about 1-inches long, they are severed from the seedlings and treated with 2 ml of 10^−8M treatment solutions in test tubes for 4 hours in the dark. After treatment time is over the solutions are dyed with Congo Red for 10 minutes. After that root segments are observed under a compound microscope to count the number of deformed root hairs in the most sensitive zone of the root segment. Root hair deformation bioassay was also performed using Red Clover in a similar fashion like Siratro above and only visual observation was made and recorded in text form.

Red Clover root hairs = assay: Root hair deformation bioassay, Red Clover; settings: compared to LCO
Experimental: as §1

canola seeds = assay: Canola seed germination in petriplates; assay type: in vivo; settings: 10^−9 M
Experimental: (§2) In petriplates on moist filter paper moistened with 10^−9 M treatment solution, canola and wheat seeds were plated for germination. At 18 h after plating, Pea CO induced more canola and wheat seed germination as compared to Pea LCO. Over the period of 21 to 24 hours, seed germination rate for LCO and CO leveled up.

wheat seeds = assay: Wheat seed germination in petriplates (Example 6); assay type: in vivo; settings: 10^−9 M
Experimental: as §2

Corn seeds [4] = assay: Corn seed germination and root length in petriplates; assay type: in vivo; settings: 5 days after plating
Experimental: (§3) Corn and wheat seeds were plated in petriplates containing 5 ml of treatment solution on a filter paper. Corn seeds were placed on moist filter paper for germination. Similarly, wheat seeds (spring wheat) were placed in petriplates. […] Roots were harvested and their length measured by WinRhizo system.

[5] = system: wheat seeds (spring wheat); assay: Wheat seed germination and root length in petriplates (Example 8); assay type: in vivo; settings: 5 days after plating; FIG. 20
Experimental: as §3

[6] = system: Common vetch (Vicia sativa) seeds; assay: Common vetch seed germination and root length; assay type: in vivo; settings: FIG. 21
Experimental: Common vetch seeds were plated in petriplates containing 5 ml of treatment solutions on filter paper. Seed germination at 22° C. was counted after 24 h and seedling root length was measured at day 5 with WinRhizo system.

Lab Lab seeds = assay: Seed germination in multiple crops: Lab Lab; assay type: in vivo; settings: 30 h, dark, 22° C., FIG. 23
Experimental: (§4) Similar to the seed germination experiment mentioned above, seeds of different crops were placed on moist filter paper in petriplates containing 5 ml liquid in each. Petriplates with seeds were then kept in the dark at 22° C.

Red Clover seeds = assay: Seed germination in multiple crops: Red Clover; assay type: in vivo; settings: 24 h, dark, 22° C., FIG. 23
Experimental: as §4

[7] = system: Green Mung, Lab Lab, Red Lentil and Red Clover seeds; assay: Seed germination in multiple crops, overall; assay type: in vivo; settings: four crops; dark, 22° C.; FIG. 23
Experimental: as §4

[8] = system: Soybean seeds (Pioneer 9oM80); assay: Soybean seed treatment, radicle length; assay type: in vivo; settings: after 48 hours, FIG. 25
Experimental: Soybean seeds (Pioneer 9oM80) were plated in petriplates on moist germination paper soaked with 5 ml of treatment solution containing either water or Soybean LCO, Pea CO and CO plus fatty acids. Seedling radicles were isolated after 48 hours and measured for their length.

Corn seeds [9] = assay: Corn seed application (greenhouse); assay type: in vivo; settings: seed treatment; CO 10^−8 M, LCO 10^−8 M alone or LCO 10^−9 with CO 10^−8; harvested 10 days after planting; FIG. 28
Experimental: Corn seeds were treated with various combinations of Pea CO (10^−8 M) and Pea LCO (10^−8, 10^−9 M). Seeds were planted in greenhouse plastic pots containing 1:1 sand:perlite mixture. Seedlings were harvested 10 days after planting, washed clean and then dried in an oven at 60 C for 48 hr.

Sorghum seeds = assay: Sorghum seed germination in petriplates; assay type: in vivo; settings: CO 10^−8 M, LCO 10^−8 M alone or CO 10^−8 with LCO 10^−9; after 5 days; FIG. 29
Experimental: Sorghum seeds were germinated in petriplates containing liquid treatment solutions. Seedlings were harvested after 5 days and their roots were measured using WinRHIZO scanner.

Cotton plants [10] = assay: Cotton foliar application with micronutrients (greenhouse); assay type: in vivo; settings: foliar spray Pea CO 10^−8 M, 4 wks after treatment, compared to control
Experimental: Cotton plants were grown from seeds in greenhouse plastic pots containing sand:perlite in a 1:1 mixture. When seedlings were at the V-stage, they were foliar-sprayed with Pea CO (10^−8 M) and CO plus micronutrients (Ca-pantothenate and boric acid), each in minute amounts. Plants were harvested 4 wks after treatment. Before harvest, leaf greenness was measured by SPAD chlorophyll meter.

soybean = assay: Soybean field trials, foliar application, grain yield; assay type: in vivo

CC(=O)NC1C(O)OC(CO)C(OC2OC(CO)C(OC3OC(CO)C(OC4OC(CO)C(OC5OC(CO)C(O)C(O)C5N)C(O)C4NC(C)=O)C(O)C3NC(C)=O)C(O)C2NC(C)=O)C1O (stereo not drawn) [Pea CO]
more plant fresh weight increase over LCO (Cotton plants [1]): 1.14% | plant fresh weights over control (Cotton plants [1]): significantly increased | dry weight increase over LCO ([2]; first trial, FIG. 10): 11.84% | dry weight increase over LCO ([2]; second trial, FIG. 11): 12.63% | shoot, root and total biomass increase over LCO ([2]; treatment solution 10^-8 M, 3-4 weeks, both experiments): greater | root hair deformation ([3]; 10^−8M treatment solutions): induced root hair deformation | root hair deformation compared to LCO or CO ([3]; 10^−8M): equal to LCO | root hair deformation pattern (visual observation) (Red Clover root hairs): much better and prominent; also recorded: best root hair deformer | seed germination at 18 h as compared to Pea LCO (canola seeds; FIG. 15): more | seed germination rate over 21 to 24 hours (canola seeds; LCO versus CO): leveled up | seed germination at 18 h as compared to Pea LCO (wheat seeds; FIG. 16): more | seed germination rate over 21 to 24 hours (wheat seeds; LCO versus CO): leveled up | corn seed germination (Corn seeds [4]; FIG. 18): increased germination | corn seedling root length over control (Corn seeds [4]; WinRhizo, FIG. 19): significantly increased | increase in root length in wheat [5]: not statistically significant but consistently greater | wheat root length, CO compared to LCO [5]: outperformed LCO | early seed germination ([6]; 22° C., counted after 24 h): induced early seed germination | more germination over control and LCO ([6]; one day after plating): 25% | seed germination (Lab Lab seeds): better germination | seed germination (Red Clover seeds): better germination | overall seed germination compared to Pea LCO [7]: better than Pea LCO | seedling radicle length [8]: less effective | corn seedling dry weight (Corn seeds [9]): increased corn seedling dry weight | sorghum seedling root length (Sorghum seeds): increased seedling root length | leaf greenness (SPAD chlorophyll meter) (Cotton plants [10]; FIG. 30): significantly increased | average dry plant weight (Cotton plants [10]; FIG. 31): numerical increase | YIELD, Mean (N = 19) (soybean; soybean foliar at V4 to V5, 8×10^−8 molar, 12 μg/acre, with glyphosate): 58.2 bu/A | YIELD, Response Increase (soybean; soybean foliar, 12 μg/acre): 3 % of Control | YIELD, Response Increase (soybean; soybean foliar, 12 μg/acre, listed as CO (CO-V)): 3% of Control | YIELD, Response (soybean; soybean foliar, 12 μg/acre, over Control): 1.7 bu/A | CO mean yield less than foliar LCO (soybean; soybean foliar, CO minus LCO, less): 0.1 bu/A | yield enhancement as a foliar treatment (conclusion) (soybean; soybean foliar, CO versus LCO): substantially equal yield enhancements | Positive Yield Response (soybean; soybean foliar, percent of the 19 trials): 68.4%
